According to PubChem BioAssay (NCI):
Values joined by “and” are separate entries in the source; they are usually repeats but may differ in a detail not shown here. Equal values may be shown once.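 Assay format: 96-well plates, 48-hour exposure. At the GI50, growth is halved. TGI denotes the concentration required for complete inhibition of growth.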 Where a SMILES comes first, the peptide text is derived from it. The star is where a group is joined. Boc = CC(C)(C)OC(=O)*

What was measured:
Test in all cases: NCI anticancer screen, dose series, 48 h
[1] = system: OVCAR-8 ovarian
[2] = system: HOP-62 NSCLC
[3] = system: NCI-H460 lung
[4] = system: MDA-N
[5] = system: IGROV1 ovarian
[6] = system: HCT-15 colon
[7] = system: SW-620 colon
[8] = system: RXF 393 renal
[9] = system: HOP-92 NSCLC
[10] = system: EKVX NSCLC

| SMILES | TGI [1] [µM] | TGI [2] [µM] | TGI [3] [µM] | TGI [4] | TGI [5] [µM] | TGI [6] [µM] | TGI [7] | TGI [8] | TGI [9] [µM] | TGI [10] | GI50 [1] | GI50 [4] | GI50 [5] | GI50 [9] [µM] | GI50 [10] | GI50 [6] | GI50 [8] |
| --- | --- | --- | --- | --- | --- | --- | --- | --- | --- | --- | --- | --- | --- | --- | --- | --- | --- |
| COc1ccc(-c2c(C#N)c(N)n(C3OCC(O)C(O)C3O)c(=S)c2C#N)cc1 (configuration not stated) | > 100 | > 100 | > 100 | > 100 µM | > 100 | > 100 | > 100 µM | > 100 µM |  |  |  |  |  |  |  |  |  |
| COc1cccc2c1C(=O)c1c(O)c3c(c(O)c1C2=O)CC(O)(C(C)=O)CC3OC1CC([N+](C)(C)C)C(O)C(C)O1 (configuration not stated) | > 100 | > 100 | > 100 |  | > 100 | > 100 | > 100 µM | > 100 µM | > 100 | > 100 µM |  |  |  |  |  |  |  |
| O=S(=O)(O)c1cc(S(=O)(=O)O)c2c(N=Nc3ccccc3)c(O)ccc2c1 | > 100 | > 100 |  | > 100 µM | > 100 | > 100 | > 100 µM | > 100 µM | > 100 |  |  |  |  |  |  |  |  |
| COc1cc(/C=C2\N=C(c3ccccc3)N(c3ccc(S(=O)(=O)Nc4nccs4)cc3)C2=O)ccc1O | > 100 | > 100 | > 100 |  | > 100 | > 100 | > 100 µM | > 100 µM | > 100 | > 100 µM |  |  |  |  |  |  |  |
| CCCCC1=C(C(=O)N2CCOCC2)C2(OCCO2)C1Cl (configuration not stated) | > 100 | > 100 |  | 39.7 µM | > 100 | > 100 | 89.5 µM | 81.6 µM | > 100 | > 100 µM |  |  |  |  |  |  |  |
| N/C(=N\Nc1cccc(Cl)c1)c1cccnc1 | > 100 | > 100 | > 100 |  | > 100 | > 100 | > 100 µM | > 80.3 µM | > 100 | > 100 µM |  |  |  |  |  |  |  |
| C=C[C@@]1(C)CC(=O)[C@]2(O)[C@@]3(C)[C@@H](OC(C)=O)CCC(C)(C)[C@@H]3[C@H](O)[C@H](OC(C)=O)[C@@]2(C)O1 | > 100 | > 100 | > 100 | > 100 µM | > 100 | > 100 | > 100 µM |  | > 100 | > 100 µM |  |  |  |  |  |  |  |
| O=[N+]([O-])/C(C(Cl)=C(Cl)Cl)=C(\Nc1cccc2cccnc12)Sc1ccccc1 |  | 80.7 | > 100 | > 100 µM |  | 34.4 | 31.9 µM |  |  | > 100 µM |  |  |  |  |  |  |  |
| COC(=O)/N=[N+](\[O-])C(c1ccc(Cl)cc1)c1ccc(Cl)cc1 | > 100 |  | > 100 | > 100 µM | > 100 | > 100 | > 100 µM | 84.1 µM |  | > 100 µM |  |  |  |  |  |  |  |
| CC(C)OP(=O)(OC(C)C)c1nn(-c2ccc([N+](=O)[O-])cc2)c(=N)s1 | > 100 | > 100 | > 100 |  | > 100 | > 100 | > 100 µM |  | > 100 | > 100 µM |  |  |  |  |  |  |  |
| CC(SC(=S)N1CCCC1)C(=O)Nc1nnc(-c2ccc(Cl)cc2)o1 (configuration not stated) | > 100 | > 100 | > 100 |  | > 100 | > 100 | > 100 µM | > 100 µM | > 100 |  |  |  |  |  |  |  |  |
| CC[C@@]1(O)C(=O)OCc2c1cc1n(c2=O)Cc2c-1nc1ccccc1c2C=Nc1ccc(N[C@@H]2c3cc4c(cc3[C@@H](c3cc(OC)c(O)c(OC)c3)[C@H]3C(=O)OC[C@@H]32)OCO4)cc1 | 0.263 |  |  | 27.6 µM and 3.4 µM |  |  | 55.7 µM and > 100 µM | 2.25 µM and 0.546 µM |  | 19.9 µM and 10.9 µM | 0.0264 µM and 0.016 µM | 0.351 µM and 0.0613 µM | 0.274 µM and 0.132 µM | 0.0258 | 2.51 µM and 0.665 µM | 1.08 µM and 0.236 µM | 0.127 µM and 0.0526 µM |
| c1ccc2nc3c(nc2c1)sc1nc2ccccc2n13 | > 100 |  | > 100 | > 100 µM | > 100 | > 100 |  | > 100 µM | > 100 | > 100 µM |  |  |  |  |  |  |  |
| Clc1ccccc1-c1nn2c(CCCCCCCCc3nnc4sc(-c5ccccc5Cl)nn34)nnc2s1 | > 100 | > 100 | > 100 | > 100 µM |  | > 100 | > 100 µM | > 100 µM | > 100 | > 100 µM |  |  |  |  |  |  |  |
| CC1CC/C(=C\c2ccc(Cl)cc2)C(=O)/C1=C\c1ccc(Cl)cc1 (configuration not stated) | > 100 | 57.9 |  | > 100 µM | 46.9 | 50.4 | > 100 µM | 71.7 µM | > 100 | 63.7 µM |  |  |  |  |  |  |  |
| CCOC(=O)C12C3CCC1C2C(=O)C3 (configuration not stated) | > 100 | > 100 | > 100 | > 100 µM | > 100 | > 100 | > 100 µM | > 100 µM |  | > 100 µM |  |  |  |  |  |  |  |
| COC(=O)C(Cc1c[nH]c2ccccc12)NC(=O)C(Cc1c[nH]c2ccccc12)NC(=O)C(Cc1c[nH]c2ccccc12)NC(=O)C(Cc1c[nH]c2ccccc12)NC(=O)C(Cc1c[nH]c2ccccc12)NC(=O)OC(C)(C)C (configuration not stated) (Boc-WWWWW-OMe; configuration not given here) | > 100 | > 100 | > 100 | > 100 µM | > 100 | > 100 | > 100 µM |  |  |  |  |  |  |  |  |  |  |
| O=C1c2scc(-c3ccc(F)cc3)c2-n2cccc21 | > 100 | 64.4 | > 100 | 28.8 µM | > 100 | > 100 | > 100 µM | > 100 µM |  | > 100 µM |  |  |  |  |  |  |  |
| Cc1ccc(/C(O)=C/c2nc3ccccc3nc2NC23CC4CC(CC(C4)C2)C3)cc1 | > 10 | > 10 |  | > 10 µM | > 10 | > 10 | > 10 µM |  | > 10 |  |  |  |  |  |  |  |  |
| C[C@@H]1C(=O)O[C@@H]2C[C@@]1(C)[C@@H]1C(=O)C3(O)OC14C2(C)OC(=O)[C@@]4(O)CCC1C3C(O)C=C2CC=CC(=O)[C@@]21C (some centres not stated) | > 100 | > 100 | > 100 | > 100 µM | > 100 | > 100 | > 100 µM | 32.8 µM |  | > 100 µM |  |  |  |  |  |  |  |
| [N-]=[N+]=NC1(c2ccccc2)C(=O)c2cccc3c4ccccc4n(c23)C1=O (configuration not stated) | > 100 | > 100 | > 100 | > 100 µM | > 100 | > 100 | > 100 µM | > 100 µM |  | > 100 µM |  |  |  |  |  |  |  |
| COc1ccc(OC)c2sc(N3C(=O)/C(=C/c4ccc(N(C)C)cc4)N=C3c3ccccc3)nc12 | > 100 | > 100 | > 100 | 61.3 µM | > 100 | > 100 | > 100 µM |  | > 100 | > 100 µM |  |  |  |  |  |  |  |
| CCOC(=O)CCN1C(=O)c2ccc(NC(=O)C(=O)O)cc2S1(=O)=O | > 100 | > 100 | > 100 | > 100 µM | > 100 | > 100 | > 100 µM |  | > 100 | > 100 µM |  |  |  |  |  |  |  |
